Reference: US20090005406A1, “Cancer Treatment Method” (SMITHKLINE BEECHAM CORPORATION, priority 2005, published 2009)
Marks after values point to notes of the source that are not given here.

Experiments:
Solid Tumors = test: Clinical study of orally administered pazopanib in patients with solid tumors (clinical response); format: in vivo; parameters: key to Response: SD stable disease;; MR mixed response;; PR partial remission
Method: (§1) Sixty-three patients (pts) with cancer were treated with pazopanib three times a week, once (qd) or twice (bid) daily in a dose escalation scheme. The amount and frequency of administration of pazopanib to a representative number of those pts is summarized below in Table 1. Pts were evaluated monthly and treated until disease progression or intolerable side effects. Clinical response was determined every 8 wks. Safety and pharmacodynamics were separately assessed.
(§2) Preliminary representative patient data are shown below in Table 2.

[1] = Peak plasma concentration of pazopanib in the clinical study; format: in vivo; conditions: oral dosing, regardless of tumor type
Method: as §1, §2

[2] = patient with Adeno lung, 200-800 mg qd, oral
[3] = patient with Chondrosarcoma, 400-800 mg qd, oral
[4] = patient with Chondrosarcoma, 2000-800 mg qd, oral
[5] = patient with GIST, 600-800 mg qd, oral
[6] = patient with Hurthle Cell tumor, 50-800 mg qd, oral
[7] = patient with Leiomyosarcoma, 50-800 mg qd, oral
[8] = patient with Melanoma, 50-400 mg qd, oral
[9] = patient with Neuroendocrine tumor, 300 mg bid, oral
[10] = patient with Rectal carcinoid, 800 mg qd, oral
[11] = patient with Renal cell carcinoma, 800 mg qd, oral, patient withdrawn from study
[12] = patient with Renal cell carcinoma, 2000 mg qd, oral
[13] = patient with Renal cell carcinoma, 1400-800 mg qd, oral

peak plasma concentrations of pazopanib in patients that demonstrated a clinical benefit [1]: ≥ 40 µM
Structure (SMILES): Cc1ccc(Nc2nccc(N(C)c3ccc4c(C)n(C)nc4c3)n2)cc1S(N)(=O)=O [pazopanib, 5-({4-[(2,3-dimethyl-2H-indazol-6-yl)(methyl)amino]pyrimidin-2-yl}amino)-2-methylbenzenesulfonamide]
Duration on pazopanib (weeks) (Solid Tumors; [2]): 55 weeks
Response (Solid Tumors; [2]): SD
Duration on pazopanib (weeks) (Solid Tumors; [3]): 31 weeks
Response (Solid Tumors; [3]): SD
Duration on pazopanib (weeks) (Solid Tumors; [4]): 90+ weeks
Response (Solid Tumors; [4]): SD (MR)
Duration on pazopanib (weeks) (Solid Tumors; [5]): 60 weeks
Response (Solid Tumors; [5]): SD
Duration on pazopanib (weeks) (Solid Tumors; [6]): 101 weeks
Response (Solid Tumors; [6]): SD (MR)
Duration on pazopanib (weeks) (Solid Tumors; [7]): 34 weeks
Response (Solid Tumors; [7]): SD
Duration on pazopanib (weeks) (Solid Tumors; [8]): 36 weeks
Response (Solid Tumors; [8]): SD
Duration on pazopanib (weeks) (Solid Tumors; [9]): 50+ weeks
Response (Solid Tumors; [9]): MR
Duration on pazopanib (weeks) (Solid Tumors; patient with Neuroendocrine tumor, 1000 mg qd, oral): 38 weeks
Response (Solid Tumors; patient with Neuroendocrine tumor, 1000 mg qd, oral, preliminary data not yet confirmed): PR^#
Duration on pazopanib (weeks) (Solid Tumors; [10]): 40+ weeks
Response (Solid Tumors; [10]): SD
Response (Solid Tumors; patient with Renal cell carcinoma, 300 mg bid, oral (40+ weeks patient)): MR
Response (Solid Tumors; patient with Renal cell carcinoma, 300 mg bid, oral (52+ weeks patient)): PR
Duration on pazopanib (weeks) (Solid Tumors; patient with Renal cell carcinoma, 300 mg bid, oral, response MR): 40+ weeks
Duration on pazopanib (weeks) (Solid Tumors; patient with Renal cell carcinoma, 300 mg bid, oral, response PR): 52+ weeks
Response (Solid Tumors; patient with Renal cell carcinoma, 800 mg qd, oral (12+ weeks patient)): SD
Duration on pazopanib (weeks) (Solid Tumors; [11]): 19 weeks
Response (Solid Tumors; [11]): SD (MR)*
Duration on pazopanib (weeks) (Solid Tumors; patient with Renal cell carcinoma, 800 mg qd, oral, response SD): 12+ weeks
Duration on pazopanib (weeks) (Solid Tumors; [12]): 24 weeks
Response (Solid Tumors; [12]): SD (MR)
Duration on pazopanib (weeks) (Solid Tumors; [13]): 40 weeks
Response (Solid Tumors; [13]): SD (MR)
